# Data: patent US7534426B2, “Glutenase enzyme assays” (The Board of Trustees of the Leland Stanford Junior …, priority 2004, dated 2009)
# Like-named read-outs stand apart in the source and are kept apart here. Ends that are not written are not given here.
# Tests used:
# [1] = In vitro digestion of gliadin peptides with gastric and pancreatic enzymes (PTCtCE); type: in vitro ADME; conditions: pH 7.04
# Protocol: (§1) In vitro Digestion of Gliadin Peptides. The in vitro digestion of each peptide was performed as follows: 75 μM (final concentration) of peptide was combined with 32 μL of 0.03 M HCl, pepsin (1:100 w pepsin/w peptide) and water to give a volume of 104 μL. The reaction was carried out for 30 minutes at 37° C. and was stopped by the addition of 40 μL of 1M sodium phosphate/sodium bisphosphate (pH 7.04). Chymotrypsin (1:100 w/w), trypsin (1:100.7 w/w), elastase (1:200 w/w), and carboxypeptidase A (1:100 w/w) were then added to give a final reaction volume of 168 μL. The reaction mixture was incubated at 37° C. for the indicated time and then stopped by heating at 90° C. for 5 minutes. Alternatively, the peptide ([…]) was combined with rat intestinal brush border enzymes, where the final concentration of brush border aminopeptidase N was 100 μU/μL. The rat intestinal brush border was prepared as described (Ahnen et al., 1982) and the activity was measured by assaying continuously at 30° C. in 0.1 M Tris HCl, pH 8.0, containing 1 mM Leu-pNA [extinction coefficient at 410 nm (ε410)=8,800 M^−1/cm^−1] in 1% dimethyl sulfoxide to improve solubility. In some reactions prolyl endopeptidase was also added at a final concentration of 100 μU/μL. The reaction mixture was analyzed by reverse phase HPLC on a Vydac 218MS54 column (4.6 mm inner diameter×15 cm).
# (§2) Digestive resistance of gliadin peptides and effect of PEP. The gliadin peptides P2-P8 (Table 1) were incubated with pepsin, trypsin, chymotrypsin, carboxypeptidase A, and elastase (PTCtCE) and purified rat intestinal brush border membranes (BBM) as previously detailed (Shan et al., 2002) to assess their resistance to digestion. […] Peptides P2, P3, P5 contain one or more epitopes from α-gliadin, whereas P7 and P8 carry γ-gliadin epitopes. P4 is believed to stimulate the innate immune system, and P6 has macrophage stimulating activity.
# [2] = In vitro digestion of gliadin peptides with brush border membranes; type: in vitro ADME, rat
# Protocol: as §1, §2
# [3] = In vitro digestion with brush border membranes supplemented with PEP; type: in vitro ADME; conditions: rat, kidney or brush border membranes, BBM plus 100 μU/μL PEP, 37° C.
# Protocol: as §1, with “The rat intestinal brush border was prepared as described (Ahnen et al., 1982) and the activity was measured by assaying continuously at 30° C. in 0.1 M Tris HCl, pH 8.0, containing 1 mM Leu-pNA [extinction coefficient at 410 nm (ε410)=8,800 M^−1/cm^−1] in 1% dimethyl sulfoxide to improve solubility. In some reactions prolyl endopeptidase was also added at a final concentration of 100 μU/μL.” left out
# Given the stability of gliadin peptides to intestinal peptidases and initial results indicating PEP is active against α-gliadin epitopes, the efficacy of in vitro digestion with PEP was examined. To quantify the incremental effect of PEP, we incubated the gliadin peptides with purified brush border membranes, supplemented with 100 μU/μL of PEP for 1 or 4 hours at 37° C.
# [4] = tested on: intact rat intestine co-perfused with prolyl endopeptidase (PEP); type: in vivo, Sprague-Dawley rats; conditions: co-perfused with 50 μM P5; ~190 μU/μL; ca. 1:5 weight ratio PEP:P5
# Text: In vivo Rat Intestinal Perfusion. Our procedure for in vivo intestinal perfusion of peptides in rats was modified from the Smithson and Gray procedure as follows: Sprague-Dawley rats, 250-350 g were anesthetized with isoflurane, the abdomen opened, the ligament of Treitz (duodenal-jejunal junction) identified and polyethylene catheters [2.5 mm outer diameter×1 mm inner diameter] were installed with the proximal infusion catheter placed 5 cm beyond the ligament of Treitz and the collection catheter positioned 20 cm distally. Animal core temperature was monitored to be at 37° C. by rectal thermometer. Peptides for intra-intestinal perfusion were 1 mM GLGG, 0.1 mM P3, 0.1 mM P4, 0.1 mM P5, 0.1 mM P8, 0.1 mM P9, and 0.1 mM P10. […]
# In a separate experiment, pepsin, trypsin and chymotrypsin digested gliadin (Sigma, St. Louis, Mo.) was perfused at 2 mg/mL along with 0.05 mM P5 and 41.7 […] PEP (˜190 μU/μL) to determine the effect of smaller, more accessible peptide fragments on P5 digestion. The perfusion effluent was collected, immediately frozen and subsequently analyzed by reverse phase HPLC on a Vydac 218MS54 column (4.6 mm inner diameter×15 cm). The rate of substrate disappearance for the peptides was calculated as previously detailed (Smithson and Gray, 1977). […]
Molecule,"metabolised at 1 h, 75 µM [2] [%]","metabolised at 4 h, 75 µM [2] [%]","metabolised at 4 h, 75 µM [1] [%]",also measured
FLQPQQPFPQQPQQPYPQQPQQPFPQ [Peptide P8],,,,"metabolised at 4 h, 75 µM ([1]; 75 μM peptide, 37° C., 4 hr, NR = no reaction, read-out: percentage of parent material digested, PTCtCE 4 hr): 13%; metabolised at 4 h, 75 µM ([2]; rat, kidney or brush border membranes, 75 μM peptide, aminopeptidase N 100 μU/μL, 4 hr, read-out: percentage of parent material digested, BBM 4 hr): 19%; remaining at 4 h, 75 µM ([2]; rat, kidney or brush border membranes, 4 hours, read-out: starting material remaining after BBM exposure): ~70%; metabolised at 1 h, 75 µM ([3]; 1 hr, read-out: percentage of parent material digested, BBM + PEP 1 hr): > 99%; metabolised at 4 h, 75 µM ([3]; 4 hr, read-out: percentage of parent material digested, BBM + PEP 4 hr): > 99%"
"LGQQQPFPPQQPYPQPQPF [Peptide P4, LGQQQPFPPQQPYPQPQPF]",77,98,,
LQLQPFPQPQLPYPQPQLPYPQPQLPYPQPQPF [Peptide P5],20,28,10,"remaining at 4 h, 75 µM ([2]; rat, kidney or brush border membranes): ~70%"
"QLQPFPQPQLPY [Peptide P2, QLQPFPQPQLPY]",71,94,1,
"VSFQQPQQQYPSSQ [Peptide P6, VSFQQPQQQYPSSQ]",97,99,48,
"PEP: Flavobacterium meningosepticum prolyl endopeptidase, purchased or prepared from recombinant E. coli (protein, UniProt P27028 21-705, looked up) Prolyl endopeptidase: QNSNVLKYPETKKVSHTDTYFGTQVSDPYRWLEDDRAEDTKAWVQQEVKFTQDYLAQIPFRDQLKKQLMDIWNYEKISAPFKKGKYTYFSKNDGLQAQSVLYRKDAAGKTEVFLDPNKFSEKGTTSLASVSFNKKGTLVAYSISEGGSDWNKIIILDAETKKQLDETLLDVKFSGISWLGDEGFFYSSYDKPKEGSVLSGMTDKHKVYFHKLGTKQSQDELIIGGDKFPRRYIGAYVTDDQRYLVVSAANATNGNELYIKDLKNKTDFIPIITGFDSNVNVADTDGDTLYLFTDKDAPNKRLVKTTIQNPKAETWKDVIAETSEPLEINTGGGYFFATYMKDAIDQVKQYDKNGKLVRAIKLPGSGNASGFGGEKTEKDLYYSFTNYITPPTIFKYNVTTGNSEVYQKPKVKFNPENYVSEQVFYTSSDGTKIPMMISYKKGLKKDGKNPTILYSYGGFNISLQPAFSVVNAIWMENGGIYAVPNIRGGGEYGKKWHDAGTKMQKKNVFNDFIAAGEYLQKNGYTSKEYMALSGRSNGGLLVGATMTMRPDLAKVAFPGVGVLDMLRYNKFTAGAGWAYDYGTAEDSKEMFEYLKSYSPVHNVKAGTCYPSTMVITSDHDDRVVPAHSFKFGSELQAKQSCKNPILIRIETNAGHGAGRSTEQVVAENADLLSFALYEMGIKSLK",,,,amount of PEP required to eliminate P5 under the perfusion conditions [4]: 41.7 µg/mL
